How the values were obtained:
[1] = tested on: DH10B cells co-expressing MaFRSA; experiment: In vivo incorporation at position 200 of sfGFP, MaFRSA (intact mass, GluC LC-MS/MS); type: cell-based, E. coli; settings: samples iv-v, DH10B, TB, 1 mM substrate
[2] = tested on: DH10B ΔaspC ΔtyrB harboring pMega-MaFRSA; type: cell-based, E. coli; settings: samples viii-ix, TB, 1 mM substrate

Row | Compound | sfGFP containing variant 20 at position 200 [1] | sfGFP containing variant 20 at position 200 [2] | sfGFP containing variant 1 at position 200 [1] | sfGFP containing variant 2 at position 200 [1] | sfGFP containing variant 21 at position 200 [1] | sfGFP containing variant A at position 200 [1] | sfGFP containing variant F at position 200 [1] | sfGFP containing variant K at position 200 [1] | sfGFP containing variant Q at position 200 [1] | sfGFP containing variant W at position 200 [1] | sfGFP containing variant Y at position 200 [1] | sfGFP containing variant 1 at position 200 [2] | sfGFP containing variant 2 at position 200 [2] | sfGFP containing variant 21 at position 200 [2] | sfGFP containing variant A at position 200 [2] | sfGFP containing variant F at position 200 [2] | sfGFP containing variant K at position 200 [2] | sfGFP containing variant Q at position 200 [2] | sfGFP containing variant W at position 200 [2] | sfGFP containing variant Y at position 200 [2]
1 | N[C@@H](Cc1cccc(C(F)(F)F)c1)C(=O)O [Sample 20] | 98.73% | 98.19% | – | – | – | – | – | – | – | – | – | – | – | – | – | – | – | – | – | –
2 | N[C@@H](Cc1cccc(C(F)(F)F)c1)C(=O)O [Substrate 20] | – | – | 0.00% | 0.00% | 0.32% | 0.03% | 0.34% | 0.02% | 0.11% | 0.17% | 0.28% | 0.00% | 0.00% | 0.65% | 0.02% | 0.34% | 0.01% | 0.07% | 0.12% | 0.60%

From patent publication US20250027130A1, “Nucleic Acid Synthesis and Sequencing Using Tethered Nucleoside Triphosphates” (The Regents of the University of California, priority 2022, published 2025)
